According to US20090298903A1, “USE OF TETRAMIC ACID DERIVATIVES FOR INSECT CONTROL” (priority 2006, published 2009):

Legend:
Format in all cases: in vivo
Rhagoletis cerasi = experiment: Example 21: cherry trees against Rhagoletis cerasi; conditions: 23 d after treatment 2, larvae on fruits, Dimethoate (400 EC) 200, (I-4) (150 OD) 75 g a.s./ha/m crown level
Procedure: Cherry trees cv. “Van” which are approximately 26 years old are treated, in three replications, against Rhagoletis cerasi. The application is carried out with an atomizer. Here, the active substance Example (I-4) (150 OD) and the commercial standard dimethoate (400 EC) are applied at the specified application rates. Two applications are carried out at an interval of 6 days with a water application rate of 500 l/ha/m crown level.
The test is evaluated 23 days after treatment 2 by scoring the destruction rates of the animals (larvae) on the fruits with the aid of the Abbott formula.

Thrips tabaci [1] = experiment: Example 6: onions against Thrips tabaci; conditions: population on leaves
Procedure: Plots 15 m^2 in size which are planted with onions are treated, in two replications, against Thrips tabaci. The application is effected with a knapsack sprayer which is operated with pressurized air. Here, the active substances Example (I-4), in a tank mix together with 0.2% a.s. rapeseed oil methyl ester (500 EW) and the commercial standard dimethoate and (380 EC), are tested at the specified application rates in a tank mix with 0.9% a.s. E-actipron (900 EC). The water application rate is 300 l/ha.
The test was evaluated 43 and 62 days after the treatment by scoring the destruction rate of the population on the leaves.

[2] = test system: Leptinotarsa decemlineata; experiment: Example 23: potatoes against Leptinotarsa decemlineata
Procedure: Plots approx. 10 m^2 in size which are planted with potatoes “Quarta” are treated, in three replications, against Leptinotarsa decemlineata. The application is carried out with a knapsack sprayer operated with pressurized air. Here, the active substance Example (I-4) (240 SC), in a tank mix together with 0.2% a.s. rapeseed oil methyl ester (500 EW) and the commercial standard Deltamethrin (100 EC), is tested at the specified application rate. The water application rate is 300 l/ha.
The test is evaluated 3, 8 and 20 days after the treatment by scoring the destruction rate of the animals (larvae) on the plants.

[3] = test system: apple capsid bug (Plesiocoris rugicollis); experiment: Example 1B: apple trees against apple capsid bug; conditions: 37 d after treatment, larvae on twigs, Deltamethrin (EC 025) 3.75, (I-4) (150 OD) 30 g a.s./ha/m crown level
Procedure: Apple trees cv. “Holsteiner Cox” which are approximately 14 years old are treated, in 3 replications, against the apple capsid bug (Plesiocoris rugicollis). Here, the active substance Example (I-4) (150 OD) is tested at the specified application rate against the commercial standard Deltamethrin liquid (EC 025) at the specified application rate. The application is carried out with a knapsack sprayer. Here, the treatment is effected with a water application rate of 500 l/ha/m crown level.
The test is evaluated 37 days after the treatment by scoring the destruction of the larvae on the twigs with the aid of the Abbott method.

Ceutorhynchus napi = experiment: Example 26-A: oilseed rape against Ceutorhynchus napi; conditions: 55 d after treatment, larvae, Deltamethrin (25 EC) 5, (I-4) (+ 0.2% rapeseed oil methyl ester) 72, Thiacloprid (OD 240) 72, Lambda-cyhalothrin 5 g a.s./ha
Procedure: Plots approx. 25 m^2 in size which are planted with oilseed rape cv. “Artus” are treated, in four replications, against Ceutorhynchus napi. The application is carried out with a motor-operated knapsack sprayer. Here, the active substance Example (I-4), in a tank mix with 0.2% a.s. rapeseed oil methyl ester (500 EW) and the commercial standards Deltamethrin (25 EC), lambda-cyhalothrin (S100) and Thiacloprid (OD 240), is tested at the specified application rates. The water application rate is 250 l/ha.
The test is evaluated 55 days after the treatment by scoring the destruction rate of the larvae on the plants.

Caliothrips phaseoli = experiment: Example 3: courgettes against Caliothrips phaseoli; conditions: 8 d after treatment, nymphs on 5 leaves, Endosulfan (350 EC) 525, (I-4) (240 SC + 0.1% rapeseed oil methyl ester) 72 g a.s./ha
Procedure: Plots approx. 22 m^2 in size which are planted with courgettes cv. “Italiana negra” are treated, in three replications, against Caliothrips phaseoli. The application is effected with a motor-driven knapsack sprayer. Here, the active substance Example (I-4) (240 SC), in a tank mix together with 0.1% a.s. rapeseed oil methyl ester (500 EW) and the commercial standard endosulfan (350 EC), is tested at the specified application rates. The water application rate is approx. 510 l/ha.
The test is evaluated 8 days after the treatment by scoring the destruction of the animals (nymphs) on 5 leaves.

Dasineura pyri = experiment: Example 19b): pear trees against Dasineura pyri; conditions: 9 d after treatment 2, larvae in rolled leaves, Endosulfan (350 EC) 472.5, (I-4) as 240 SC + Mero (0.1% rapeseed oil methyl ester) 120 g a.s./ha/m crown level
Procedure: Fully-grown pear trees cv. “Conference” of crown height approx. 3.5 m are treated, in four replications, against Dasineura pyri. Here, the active substance Example (I-4) is tested as (150 OD) and (240 SC) together with 0.1% a.s. rapeseed oil methyl ester (Mero 733 1R) in a tank mix at the specified application rate against the commercial standard Endosulfan (350 EC) at the specified application rate. The application is carried out with a spray diffuser. Here, the treatment is effected with a water application rate of 1000 l/ha/m crown level. Two applications are carried out at an interval of 7 days.
The test is evaluated 9 days after treatment 2 by scoring the destruction rate of the larvae in the rolled leaves, using the Abbott method.

[4] = test system: oriental fruit moth (Laspeyresia molesta); experiment: Example 28: peach trees against oriental fruit moth; conditions: 41 d after treatment, Pyrifroxyfen (35 WP) 123, Acetamiprid (30 SG) 168, (I-4) (150 OD) 153 g a.s./ha
Procedure: Approx. 10-year-old peach trees are treated, in four replications, against the oriental fruit moth (Laspeyresia molesta). The application is carried out with a knapsack sprayer which is operated with pressurized air. Here, the active substance (I-4) (150 OD) is tested against the commercial standards Pyriproxyfen (35 WP) and Acetamiprid (30 SG) at the specified application rates. The water application rate is 935 l/ha.
The test is evaluated 41 days after the treatment by scoring the destruction rate of the animals on the trees.

Empoasca biguttula = experiment: Example 16: aubergines against Empoasca biguttula
Procedure: Plots 10 m^2 in size which are planted with aubergines are treated, in three replications, against Empoasca biguttula. The application is carried out with a knapsack sprayer which is operated with pressurized air. Here, the active substance Example (I-4) (150 OD) is tested against the commercial standards Imidacloprid (SL 100) and Profenofos (500 EC) at the specified application rates. Two applications are carried out at an interval of 7 days. The water application rate is 750 l/ha.
The test is evaluated 2, 6 and 13 days after the first treatment by scoring the destruction rates of the animals (nymphs) on the plants.

[5] = test system: flea beetles (Phyllotreta sp.); experiment: Example 24: aubergines against flea beetles; conditions: 7 d after the last of four treatments, larvae, Imidacloprid (100 SL) 100, (I-4) (100 OD) 70, Profenofos (500 EC) 500 g a.s./ha
Procedure: Plots approx. 12 m^2 in size which are planted with aubergines cv. “DLP” are treated, in three replications, against flea beetles (Phyllotreta sp.). The application is carried out with a knapsack sprayer which is operated with pressurized air. Here, the active substance Example (I-4) (100 OD) and the commercial standards Imidacloprid (100 SL) and Profenofos (500 EC) are applied at the specified application rates. Four applications are carried out at intervals of 7, 8 and 10 days, with a water application rate of 750 l/ha.
The test is evaluated 7 days after the last treatment by scoring the destruction rate of the larvae on the plants.

Thrips tabaci [6] = experiment: Example 11: dwarf beans against Thrips tabaci
Procedure: Plots approx. 26 m^2 in size which are planted with dwarf beans are treated 16 days after emergence against Thrips tabaci, in four replications. The application is carried out with a knapsack sprayer which is operated with pressurized air. Here, the active substances Example (I-2) (240 SC) (I-4) (240 SC) and Example (I-9) (240 SC), in a tank mix with 0.1% a.s. rapeseed oil methyl ester (500 EW), are tested against the commercial standard Profenofos (720 EC) at the specified application rates. The water application rate is 1000 l/ha. Two applications are carried out at an interval of 10 days.
The test is evaluated 5 and 11 days after the first treatment by scoring the destruction rate of the nymphs on the leaves.

Dasineura mali = experiment: Example 19 a): apple trees against Dasineura mali; conditions: 59 d after treatment; larvae, apple twigs; Pirimicarb (50 WG) 125, (I-4) (100 OD) 72 g a.s./ha/m crown level
Procedure: Apple trees cv. “Elan” which are approximately 16 years old are treated, in 3 replications, against the Dasineura mali. Here, the active substance Example (I-4) (100 OD) is tested at the specified application rate against the commercial standard and Pirimicarb (50 WG) at the specified application rate. The application is carried out with a spray diffuser. Here, the treatment is effected with a water application rate of 1000 l/ha/m crown level.
The test is evaluated 59 days after the treatment by scoring the destruction of the larvae on the basis of the adults present on the twigs with the aid of the Abbott method.

Pegomya spp. = experiment: Example 17: winter wheat against Pegomya spp.; conditions: 3 days after the last of two treatments (interval 7 days), larvae, Thiacloprid (240 OD) 72, (I-4) (240 SC + 0.2% rapeseed oil methyl ester) 96 g a.s./ha
Procedure: Plots approx. 25 m^2 in size which are planted with winter wheat cv. “Capfern” are treated, in four replications, against Pegomya spp. The application is carried out with a knapsack sprayer which is operated with pressurized air. Here, the active substance Example (I-4) (240 SC), in a tank mix with 0.2% a.s. rapeseed oil methyl ester (500 EW) and the commercial standard Thiacloprid (240 OD), is tested at the specified application rates. Two applications are carried out at an interval of 7 days. The water application rate is 350 l/ha.
The test is evaluated 3 days after the last treatment by scoring the destruction rate of the larvae on the plants.

SMILES: CNC(=O)CSP(=S)(OC)OC [Dimethoate, dimethoate]
- Efficacy (% Abbott) 23 d (Rhagoletis cerasi): 100 % Abbott
- Efficacy (% Abbott) 43 d (Thrips tabaci [1]; 43 d after treatment, Dimethoate (380 EC + 0.9% E-actipron) 380, (I-4) (+ 0.2% rapeseed oil methyl ester) 96 g a.s./ha): 64.5 % Abbott
- Efficacy (% Abbott) 62 d (Thrips tabaci [1]; 62 d after treatment, Dimethoate 380, (I-4) 96 g a.s./ha): 74.8 % Abbott

SMILES: CC1(C)[C@H](C(=O)O[C@H](C#N)c2cccc(Oc3ccccc3)c2)[C@@H]1C=C(Br)Br [Deltamethrin]
- Efficacy (% Abbott) 3 d ([2]; 3 d after treatment, larvae, Deltamethrin (100 EC) 75, (I-4) (240 SC + 0.2% rapeseed oil methyl ester) 72 g a.s./ha): 100 % Abbott
- Efficacy (% Abbott) 8 d ([2]; 8 d after treatment, Deltamethrin 75, (I-4) 72 g a.s./ha): 100 % Abbott
- Efficacy (% Abbott) 20 d ([2]; 20 d after treatment, Deltamethrin 75, (I-4) 72 g a.s./ha): 100 % Abbott
- Efficacy (%) Abbott 37 d [3]: 78%
- Efficacy (% Abbott) 55 d (Ceutorhynchus napi): 77.1 % Abbott

SMILES: O=S1OCC2C(CO1)C1(Cl)C(Cl)=C(Cl)C2(Cl)C1(Cl)Cl (stereo not drawn) [Endosulfan, endosulfan]
- Efficacy (% Abbott) 8 d (Caliothrips phaseoli): 67.0 % Abbott
- Efficacy (% Abbott) 9 d (Dasineura pyri): 71.6 % Abbott

SMILES: C/C(=N\C#N)N(C)Cc1ccc(Cl)nc1 [Acetamiprid]
- Efficacy (% Abbott) 41 d [4]: 35.8 % Abbott

SMILES: CC(COc1ccc(Oc2ccccc2)cc1)Oc1ccccn1 (stereo not drawn) [Pyrifroxyfen, Pyriproxyfen]
- Efficacy (% Abbott) 41 d [4]: 39.0 % Abbott

SMILES: CCCSP(=O)(OCC)Oc1ccc(Br)cc1Cl (stereo not drawn) [Profenofos]
- Efficacy (% Abott) 2 d (Empoasca biguttula; 2 d after first treatment, nymphs, Imidacloprid (SL 100) 30, (I-4) (150 OD) 50, Profenofos (500 EC) 500 g a.s./ha, two applications, interval 7 days): 41.3 % Abott
- Efficacy (% Abott) 6 d (Empoasca biguttula; 6 d after first treatment, Imidacloprid 30, (I-4) 50, Profenofos 500 g a.s./ha): 65.1 % Abott
- Efficacy (% Abott) 13 d (Empoasca biguttula; 13 d after first treatment, Imidacloprid 30, (I-4) 50, Profenofos 500 g a.s./ha): 53.8 % Abott
- Efficacy (% Abbott) 7 d [5]: 84 % Abbott
- Efficacy (% Abbott) 5 d (Thrips tabaci [6]; 5 d after first treatment, nymphs on leaves, Profenofos (720 EC) 1300, (I-9) 54, (I-2) 54, (I-4) 60 g a.s./ha, 240 SC + 0.1% rapeseed oil methyl ester): 80 % Abbott
- Efficacy (% Abbott) 11 d (Thrips tabaci [6]; 11 d after first treatment (second application at 10 days), Profenofos 1300, (I-9) 54, (I-2) 54, (I-4) 60 g a.s./ha): 75 % Abbott

SMILES: Cc1nc(N(C)C)nc(OC(=O)N(C)C)c1C [Pirimicarb]
- Efficacy (%) Abbott 59 d (Dasineura mali): 0%

SMILES: N#C/N=C1\SCCN1Cc1ccc(Cl)nc1 [Thiacloprid]
- Efficacy (% Abbott) 55 d (Ceutorhynchus napi): 52.4 % Abbott
- Efficacy (% Abbott) 10 d (Pegomya spp.): 100 % Abbott
